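Interpolation was linear, between the two tested concentrations surrounding the appropriate level; five concentrations were tested over 48 hours in 96-well plates. GI50 = concentration required for 50% inhibition of growth.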 The source made the active and inactive calls. Rule as the data show it: active = GI50 up to about 1.1 µM and inactive = higher. Starred links: 1 amine or outer side, 2 acyl side, 3 side chain; linkers in the order of their positions; H or OH if unused. Non-standard residues stand in square brackets, D forms with d. Residues, ends and D or L forms follow the SMILES beside them. ξ: configuration not given here. X24 = O=C(C(CC(O)CO)O[*:1])[*:2]; Ile(3ξ) = CCC(C)[C@H](N)C(=O)O; NMeV = CN[C@H](C(=O)O)C(C)C; NMeA = CN[C@@H](C)C(=O)O; βAla = NCCC(=O)O
Legend:
Assay in all cases: growth of human tumour cells (NCI), 48 h
DMS-114 = system: DMS-114
HOP-18 = system: HOP-18
M19-MEL = system: M19-MEL
XF498 = system: XF498
DLD-1 = system: DLD-1
RXF 631 = system: RXF 631
LXFL 529 = system: LXFL 529
KM-20L2 = system: KM-20L2
SNB-78 = system: SNB-78

Measured: GI50

CN(C)CCc1ccc(Cl)cc1Cl
inactive: DMS-114 > 100 µM | HOP-18 > 100 µM | M19-MEL > 100 µM | XF498 > 100 µM | DLD-1 > 100 µM | RXF 631 > 100 µM | LXFL 529 > 100 µM | KM-20L2 > 100 µM

COc1ccc(C(=O)C(c2ccc(OC)cc2)C2C(=O)Oc3ccccc32)cc1 (stereo not drawn)
inactive: DMS-114 > 10 µM | HOP-18 59.4 µM | M19-MEL > 10 µM | SNB-78 67.9 µM | XF498 > 10 µM | DLD-1 > 10 µM | RXF 631 > 10 µM | LXFL 529 > 10 µM | KM-20L2 > 10 µM

CCCCCCCC/C=C\CCCCCCCC(=O)NCCN(CCN)C(=O)CCCCCCC/C=C\CCCCCCCC
inactive: DMS-114 > 100 µM | HOP-18 > 100 µM | M19-MEL > 100 µM | DLD-1 > 100 µM | LXFL 529 > 100 µM | KM-20L2 > 100 µM

CCC12CCCNC1c1c(n(C)c3ccccc13)C(C(=O)OC)C2 (stereo not drawn)
inactive: DMS-114 18.5 µM | M19-MEL 68.4 µM | XF498 51.6 µM | DLD-1 76.4 µM | LXFL 529 80.2 µM | KM-20L2 44.3 µM

CC(=O)O[C@H]1CC[C@@]2(C)C(=CC[C@@H]3C2CC[C@]2(C)Nc4c(cnn4-c4ccccc4)CC32)C1 (stereo partly drawn)
inactive: DMS-114 37.1 µM | M19-MEL 34.2 µM | SNB-78 14.4 µM | XF498 25.7 µM | DLD-1 21.4 µM | LXFL 529 17.9 µM | KM-20L2 3.78 µM

O=C(O)c1c2c(cc3c(=O)cc(-c4ccccc4)oc13)CCCC2
inactive: SNB-78 > 100 µM | XF498 > 100 µM | DLD-1 > 100 µM | RXF 631 > 100 µM | LXFL 529 > 100 µM | KM-20L2 > 100 µM

Cc1cc(Cl)ccc1NC(=O)C1C(=O)C(=O)N(c2ccc(Cl)cc2C)C1=O (stereo not drawn)
inactive: DMS-114 25.1 µM | M19-MEL > 100 µM | SNB-78 76 µM | DLD-1 > 100 µM | RXF 631 68.2 µM | LXFL 529 48.3 µM | KM-20L2 48.3 µM

COc1cc2c3c(c1OC)-c1ccccc1C(C(O)c1ccccc1)C3N(C)CC2 (stereo not drawn)
inactive: DMS-114 17.6 µM | HOP-18 82.8 µM | M19-MEL 27.8 µM | SNB-78 65.9 µM | XF498 19.1 µM | DLD-1 26.4 µM | RXF 631 22.2 µM | LXFL 529 29.6 µM | KM-20L2 20.1 µM

CCCCCCCCOCC(O)COC(C)C (stereo not drawn)
inactive: HOP-18 > 100 µM | M19-MEL 45.5 µM | DLD-1 89.7 µM | LXFL 529 93.8 µM | KM-20L2 85.1 µM

COc1cc(C)c(C(=O)/C=C/c2cc(OC)c(O)c(OC)c2)cc1O
inactive: DMS-114 20.5 µM | M19-MEL 19.3 µM | SNB-78 45.5 µM | XF498 15.7 µM | DLD-1 15.3 µM | RXF 631 20.8 µM | LXFL 529 20.4 µM | KM-20L2 26.5 µM

COc1ccc2c(c1)[n+]([O-])c(C(=O)C/C(=N\NC(=O)C[N+](C)(C)C)C(=O)Nc1cc(Cl)ccc1Cl)c(C)[n+]2[O-]
inactive: HOP-18 > 100 µM | M19-MEL > 100 µM | SNB-78 > 100 µM | DLD-1 > 100 µM | LXFL 529 > 100 µM

O=C(Cc1ccc([N+](=O)[O-])c([N+](=O)[O-])c1CC(=O)C(=O)Nc1cc(Cl)ccc1Cl)C(=O)Nc1cc(Cl)ccc1Cl
inactive: DMS-114 45.5 µM | HOP-18 > 100 µM | M19-MEL > 100 µM | SNB-78 80 µM | DLD-1 > 100 µM | LXFL 529 > 100 µM | KM-20L2 > 100 µM

NC(CO)c1ccc(OCc2ccccc2)cc1 (stereo not drawn)
inactive: DMS-114 > 100 µM | HOP-18 > 100 µM | M19-MEL > 100 µM | SNB-78 > 100 µM | XF498 76.9 µM | DLD-1 > 100 µM | LXFL 529 > 100 µM | KM-20L2 > 100 µM

O=C(O)COc1ccc(O)c2c1C(=O)CCCC2=O
inactive: DMS-114 > 100 µM | M19-MEL > 100 µM | SNB-78 > 100 µM | XF498 > 100 µM | DLD-1 > 100 µM | RXF 631 > 100 µM | LXFL 529 > 100 µM | KM-20L2 > 100 µM

O=C(/C=C\c1cccc2ccccc12)c1cccs1
inactive: DMS-114 4.3 µM | HOP-18 10.2 µM | M19-MEL 8.3 µM | SNB-78 15.1 µM | DLD-1 3.77 µM | LXFL 529 10.9 µM | KM-20L2 10.7 µM

O=C(O)CCSCCCN1C(=O)c2ccccc2C1=O
inactive: DMS-114 > 100 µM | M19-MEL > 100 µM | SNB-78 > 100 µM | LXFL 529 > 100 µM | KM-20L2 > 100 µM

O=C1NC2C=CN(Cc3ccccc3)C=C2C(=O)N2CCCC12 (stereo not drawn)
inactive: DMS-114 > 100 µM | HOP-18 > 100 µM | M19-MEL > 100 µM | SNB-78 > 100 µM | XF498 > 100 µM | DLD-1 > 100 µM | RXF 631 > 100 µM | LXFL 529 > 100 µM | KM-20L2 > 100 µM

COc1cc2cc3c4c(cc(OC)c(OC)c4c2cc1OC)CCN3C(=O)CCC(=O)O
inactive: DMS-114 > 100 µM | SNB-78 > 100 µM | DLD-1 > 100 µM | LXFL 529 > 100 µM | KM-20L2 > 100 µM

CCCCCCCC(=O)OCC(COC(=O)C(C)(C)C)OC(=O)Cc1ccccc1 (stereo not drawn)
inactive: DMS-114 > 100 µM | HOP-18 > 100 µM | M19-MEL > 100 µM | DLD-1 > 100 µM | LXFL 529 > 100 µM | KM-20L2 > 100 µM

COc1ccc(-c2cc(C(=O)Nc3cccc(C(F)(F)F)c3)nc(S)n2)cc1
inactive: DMS-114 > 100 µM | HOP-18 > 100 µM | M19-MEL > 100 µM | SNB-78 > 100 µM | XF498 > 100 µM | DLD-1 > 100 µM | LXFL 529 > 100 µM | KM-20L2 > 100 µM

N#C/C(=N\c1ccccc1N(C(=O)c1ccccc1)C(=O)c1ccccc1)c1ccccc1
inactive: DMS-114 4.63 µM | HOP-18 > 40.4 µM | M19-MEL > 100 µM | SNB-78 > 91 µM | XF498 7.8 µM | DLD-1 > 42 µM | LXFL 529 41 µM | KM-20L2 9.71 µM

CCOc1ccc2c(c1)[n+]([O-])c(-c1ccccc1Cl)c(N)[n+]2[O-]
inactive: DMS-114 > 100 µM | HOP-18 > 100 µM | M19-MEL > 100 µM | SNB-78 > 100 µM | XF498 > 100 µM | DLD-1 > 100 µM | RXF 631 > 100 µM | LXFL 529 > 100 µM | KM-20L2 > 100 µM

C=C1c2ccccc2N(S(=O)(=O)c2ccc(C)cc2)C12CCCCC2
inactive: DMS-114 18.9 µM | HOP-18 > 100 µM | M19-MEL 47.1 µM | XF498 > 100 µM | DLD-1 > 100 µM | LXFL 529 37.2 µM | KM-20L2 > 100 µM

COc1cc(C2C(C(=O)O)=C(COC(C)=O)Oc3cc4c(cc32)OCO4)cc(OC)c1OC(C)=O (stereo not drawn)
inactive: DMS-114 > 100 µM | HOP-18 > 100 µM | M19-MEL > 100 µM | SNB-78 > 100 µM | XF498 > 100 µM | DLD-1 > 100 µM | RXF 631 > 100 µM | KM-20L2 > 100 µM

CCC(C)[C@@H]1NC(=O)[C@@H]2CCCN2C(=O)C(CC(O)CO)OC(=O)CCNC(=O)[C@H](C)N(C)C(=O)[C@H](C(C)C)N(C)C1=O (stereo partly drawn) (cyclo([Ile(3ξ)][NMeV][NMeA][βAla][X24]P))
inactive: M19-MEL > 100 µM | SNB-78 > 100 µM | XF498 > 100 µM | DLD-1 > 100 µM | RXF 631 > 100 µM | LXFL 529 44.6 µM | KM-20L2 > 100 µM
